The values below come from ChEMBL document CHEMBL1156319, “Synthesis, crystal and antibacterial studies of diversely functionalized tetrahydropyridin-4-ol” (2010).

Converted amounts (≈) assume the structure as drawn.

Type in all cases: functional
In test [1] the test system is Enterococcus faecalis. Nature of the test: Antibacterial activity against Enterococcus faecalis LCB0005 by two fold serial dilution method.
For test [2], the system named is Staphylococcus epidermidis. Description: Antibacterial activity against Staphylococcus epidermidis LCB0003 by two fold serial dilution method.
Test [3] has as its system Escherichia coli. Nature of the test: Antibacterial activity against Escherichia coli LCB0011 by two fold serial dilution method.
Test [4] concerns Enterococcus faecium. Description: Antibacterial activity against Enterococcus faecium LCB0009 by two fold serial dilution method.
Test [5] has as its system Escherichia coli. Nature of the test: Antibacterial activity against Escherichia coli LCB0012 by two fold serial dilution method.
Another test deals with Pseudomonas aeruginosa. Nature of the test: Antibacterial activity against Pseudomonas aeruginosa LCB0013 by two fold serial dilution method.
A further test relates to Haemophilus influenzae. Description: Antibacterial activity against Haemophilus influenzae LCB0015 by two fold serial dilution method.
The subject of test [6] is Escherichia coli. Description: Antibacterial activity against Escherichia coli LCB0010 by two fold serial dilution method.
For test [7], the system named is Staphylococcus aureus. Description: Antibacterial activity against Staphylococcus aureus LCB0001 by two fold serial dilution method.
In another test the test system is Klebsiella pneumoniae. Description: Antibacterial activity against Klebsiella pneumoniae LCB0014 by two fold serial dilution method.
The test system of another test is Moraxella catarrhalis. Description: Antibacterial activity against Moraxella catarrhalis LCB0016 by two fold serial dilution method.
For test [8], the system named is Enterococcus faecalis. Nature of the test: Antibacterial activity against vancomycin and Linezolid resistant Enterococcus faecalis LCB0007 by two fold serial dilution method.
Test [9] concerns Staphylococcus epidermidis. Description: Antibacterial activity against methicillin-resistant Staphylococcus epidermidis LCB0004 by two fold serial dilution method.
Test [10] deals with Enterococcus faecalis. Nature of the test: Antibacterial activity against vancomycin-resistant Enterococcus faecalis LCB0006 by two fold serial dilution method.
For test [11], the system named is Staphylococcus aureus. Description: Antibacterial activity against methicillin-resistant Staphylococcus aureus LCB0002 by two fold serial dilution method.
The subject of test [12] is Enterococcus faecium. Nature of the test: Antibacterial activity against vancomycin-resistant Enterococcus faecium LCB0008 by two fold serial dilution method.

For the compound `CCOC(=O)C1=C(O)CC(c2ccccc2)N(C(=O)C(C)N2CCOCC2)C1c1ccccc1` (centres undefined), the MIC90 against Enterococcus faecalis [1] was > 128 µg/mL; in [2] it was > 128 µg/mL; against Escherichia coli [3], > 128 µg/mL; in the test with Enterococcus faecium [4], 128 µg/mL (≈ 276 µM); against Escherichia coli [5], > 128 µg/mL; in the test with Pseudomonas aeruginosa it was > 128 µg/mL. The MIC90 with Haemophilus influenzae, with Escherichia coli [6], against Staphylococcus aureus [7], in the test with Klebsiella pneumoniae and against Moraxella catarrhalis was > 128 µg/mL throughout.

As to `CCOC(=O)C1=C(O)CC(c2ccccc2)N(C(=O)C(C)N2CCC(=O)CC2)C1c1ccccc1` (centres undefined), the MIC90 was > 128 µg/mL in the test with Enterococcus faecalis [1]; > 128 µg/mL in [2]; > 128 µg/mL against Escherichia coli [3]; > 128 µg/mL with Enterococcus faecium [4]; 128 µg/mL (≈ 269 µM) against Escherichia coli [5]; > 128 µg/mL in the test with Pseudomonas aeruginosa. Also, the MIC90 in the test on Haemophilus influenzae, with Escherichia coli [6], with Staphylococcus aureus [7], against Klebsiella pneumoniae and with Moraxella catarrhalis was > 128 µg/mL in each case.

With `CCOC(=O)C1=C(O)CC(c2ccccc2)N(C(=O)C(C)Oc2ccc3ccccc3c2)C1c1ccccc1` (centres undefined), the MIC90 (with Enterococcus faecalis [1]; in test [2]; with Escherichia coli [3]; with Enterococcus faecium [4]; in the test on Escherichia coli [5]; in the test with Pseudomonas aeruginosa) was > 128 µg/mL in each case. For the same compound, the MIC90 against Haemophilus influenzae, with Escherichia coli [6], with Staphylococcus aureus [7], with Klebsiella pneumoniae and against Moraxella catarrhalis was > 128 µg/mL each time.

Consider `CCOC(=O)C1=C(O)CC(c2ccccc2)N(C(=O)C(C)n2ccc3ccccc32)C1c1ccccc1` (centres undefined), for which the MIC90 in the test with Enterococcus faecalis [1] was > 128 µg/mL; in test [2], > 128 µg/mL; in the test on Escherichia coli [3], > 128 µg/mL; against Enterococcus faecium [4], > 128 µg/mL; against Escherichia coli [5] it was 128 µg/mL (≈ 259 µM); against Pseudomonas aeruginosa it was > 128 µg/mL. Moreover, the MIC90 against Haemophilus influenzae, in the test on Escherichia coli [6], with Staphylococcus aureus [7], against Klebsiella pneumoniae and in the test on Moraxella catarrhalis was > 128 µg/mL throughout.

Take `CCOC(=O)C1=C(O)CC(c2ccccc2)N(C(=O)C(C)N2CCN(C)CC2)C1c1ccccc1` (centres undefined): the MIC90 (against Enterococcus faecalis [1]; in [2]; against Escherichia coli [3]; in the test on Enterococcus faecium [4]; in the test on Escherichia coli [5]; in the test on Pseudomonas aeruginosa) was > 128 µg/mL each time. Moreover, the MIC90 in the test on Haemophilus influenzae is > 128 µg/mL; in the test with Escherichia coli [6] it was > 128 µg/mL; against Staphylococcus aureus [7], > 128 µg/mL; against Klebsiella pneumoniae, > 128 µg/mL; against Moraxella catarrhalis, 64 µg/mL (≈ 134 µM).

For the compound `CCOC(=O)C1=C(O)CC(c2ccccc2)N(C(=O)C(C)N2CCSCC2)C1c1ccccc1` (centres undefined), the MIC90 (in the test with Enterococcus faecalis [1]; in test [2]; against Escherichia coli [3]; against Enterococcus faecium [4]; in the test with Escherichia coli [5]; with Pseudomonas aeruginosa) was > 128 µg/mL throughout. The MIC90 with Haemophilus influenzae, in the test with Escherichia coli [6], against Staphylococcus aureus [7], in the test on Klebsiella pneumoniae and in the test with Moraxella catarrhalis was > 128 µg/mL each time.

As to `CCOC(=O)C1=C(O)CC(c2ccccc2)N(C(=O)C(C)n2ccnc2)C1c1ccccc1` (centres undefined), the MIC90 against Enterococcus faecalis [1] is > 128 µg/mL; in test [2] it was > 128 µg/mL; against Escherichia coli [3] it was > 128 µg/mL; against Enterococcus faecium [4] it was > 128 µg/mL; against Escherichia coli [5] it was 64 µg/mL (≈ 144 µM); with Pseudomonas aeruginosa it was 128 µg/mL (≈ 287 µM). Further, the MIC90 is > 128 µg/mL with Haemophilus influenzae; > 128 µg/mL in the test with Escherichia coli [6]; 32 µg/mL (≈ 71.8 µM) in the test with Staphylococcus aureus [7]; 128 µg/mL (≈ 287 µM) in the test on Klebsiella pneumoniae; 64 µg/mL (≈ 144 µM) in the test on Moraxella catarrhalis.

`CCOC(=O)C1=C(O)CC(c2ccccc2)N(C(=O)C(C)Sc2nc3ccccc3o2)C1c1ccccc1` (centres undefined): the MIC90 (with Enterococcus faecalis [1]; in [2]; against Escherichia coli [3]; in the test on Enterococcus faecium [4]; against Escherichia coli [5]; in the test with Pseudomonas aeruginosa) was > 128 µg/mL throughout. The MIC90 against Haemophilus influenzae, against Escherichia coli [6], in the test with Staphylococcus aureus [7], in the test on Klebsiella pneumoniae and in the test on Moraxella catarrhalis was > 128 µg/mL each time.

Consider `CCOC(=O)C1=C(O)CC(c2ccccc2)N(C(=O)C(C)Sc2ccc3ccccc3c2)C1c1ccccc1` (centres undefined), for which the MIC90 (with Enterococcus faecalis [1]; in test [2]; in the test with Escherichia coli [3]; against Enterococcus faecium [4]; against Escherichia coli [5]; in the test with Pseudomonas aeruginosa) was > 128 µg/mL in each case. The MIC90 with Haemophilus influenzae, in the test on Escherichia coli [6], against Staphylococcus aureus [7], against Klebsiella pneumoniae and against Moraxella catarrhalis was > 128 µg/mL in each case.

`CCOC(=O)C1=C(O)CC(c2ccccc2)N(C(=O)C(C)n2nnc3ccccc32)C1c1ccccc1` (centres undefined): the MIC90 (with Enterococcus faecalis [1]; in test [2]; with Escherichia coli [3]; against Enterococcus faecium [4]; against Escherichia coli [5]; against Pseudomonas aeruginosa) was > 128 µg/mL throughout. Further, the MIC90 in the test on Haemophilus influenzae, with Escherichia coli [6], with Staphylococcus aureus [7], against Klebsiella pneumoniae and with Moraxella catarrhalis was > 128 µg/mL each time.

For `CCOC(=O)C1=C(O)CC(c2ccccc2)N(C(=O)C(C)n2nnc(-c3ccccc3)n2)C1c1ccccc1` (centres undefined), the MIC90 (against Enterococcus faecalis [1]; in test [2]; with Escherichia coli [3]; in the test on Enterococcus faecium [4]; against Escherichia coli [5]; in the test with Pseudomonas aeruginosa) was > 128 µg/mL in each case. The MIC90 against Haemophilus influenzae, with Escherichia coli [6], in the test on Staphylococcus aureus [7], with Klebsiella pneumoniae and against Moraxella catarrhalis was > 128 µg/mL each time.

`CCOC(=O)C1=C(O)CC(c2ccccc2)N(C(=O)C(C)N2CCCCC2)C1c1ccccc1` (centres undefined): the MIC90 against Enterococcus faecalis [1] is > 128 µg/mL; in test [2], > 128 µg/mL; in the test with Escherichia coli [3] it was > 128 µg/mL; in the test with Enterococcus faecium [4], 128 µg/mL (≈ 277 µM); in the test on Escherichia coli [5] it was > 128 µg/mL; against Pseudomonas aeruginosa it was > 128 µg/mL. In addition, the MIC90 was > 128 µg/mL in the test on Haemophilus influenzae; > 128 µg/mL in the test on Escherichia coli [6]; > 128 µg/mL against Staphylococcus aureus [7]; > 128 µg/mL against Klebsiella pneumoniae; 64 µg/mL (≈ 138 µM) against Moraxella catarrhalis.

In the case of `CC(=O)NC[C@H]1CN(c2ccc(N3CCOCC3)c(F)c2)C(=O)O1` [LINEZOLID], the MIC90 is 4 µg/mL (≈ 11.9 µM) in the test with Enterococcus faecalis [1]; 64 µg/mL (≈ 190 µM) against Enterococcus faecalis [8]; 4 µg/mL (≈ 11.9 µM) in [2]; 16 µg/mL (≈ 47.4 µM) with Escherichia coli [3]; 4 µg/mL (≈ 11.9 µM) with Enterococcus faecium [4]; 128 µg/mL (≈ 379 µM) in the test on Escherichia coli [5]. Further, the MIC90 in the test with Pseudomonas aeruginosa was > 128 µg/mL; against Haemophilus influenzae it was 16 µg/mL (≈ 47.4 µM); in test [9] it was 8 µg/mL (≈ 23.7 µM); in the test on Escherichia coli [6], > 128 µg/mL; with Staphylococcus aureus [7], 2 µg/mL (≈ 5.93 µM); in the test with Enterococcus faecalis [10], 4 µg/mL (≈ 11.9 µM). The MIC90 was 2 µg/mL (≈ 5.93 µM) in the test on Staphylococcus aureus [11], > 128 µg/mL against Klebsiella pneumoniae, 2 µg/mL (≈ 5.93 µM) in the test on Enterococcus faecium [12] and 4 µg/mL (≈ 11.9 µM) in the test on Moraxella catarrhalis.

Regarding `N[C@@H]1[C@H]2CN(c3nc4c(cc3F)c(=O)c(C(=O)O)cn4-c3ccc(F)cc3F)C[C@@H]12` [TROVAFLOXACIN], the MIC90 in the test with Enterococcus faecalis [1] was < 0.0625 µg/mL; against Enterococcus faecalis [8], 16 µg/mL (≈ 38.4 µM); in [2], < 0.0625 µg/mL; in the test with Escherichia coli [3] it was < 0.0625 µg/mL; against Enterococcus faecium [4], 32 µg/mL (≈ 76.9 µM); in the test with Escherichia coli [5] it was < 0.0625 µg/mL. For the same compound, the MIC90 in the test on Pseudomonas aeruginosa is 0.5 µg/mL (≈ 1.2 µM); in the test on Haemophilus influenzae, < 0.0625 µg/mL; in test [9] it was < 0.0625 µg/mL; in the test on Escherichia coli [6], < 0.0625 µg/mL; against Staphylococcus aureus [7], < 0.0625 µg/mL; against Enterococcus faecalis [10] it was 16 µg/mL (≈ 38.4 µM). Further, the MIC90 against Staphylococcus aureus [11] is 2 µg/mL (≈ 4.8 µM); against Klebsiella pneumoniae it was 0.125 µg/mL (≈ 0.3 µM); in the test with Enterococcus faecium [12] it was 128 µg/mL (≈ 307 µM); in the test on Moraxella catarrhalis, < 0.0625 µg/mL.
